Laboratory results reported in patent US20230012420A1, “METHODS AND COMPOSTIONS FOR INHIBITING P97” (California Institute of Technology, priority 2021, published 2023).

Tests used:
Format in all cases: cell-based, human
p97^R155H/+ MNs [1] = experiment: MN cell survival assay (Calcein AM live cell staining); details: 400 nM, treated at 14 dpm for 6 days, read at 20 dpm, vs DMSO (FIG. 5A)
Method: The maturation of MNs was followed using a 14 day protocol from BrainXell. Briefly, the MNs were thawed and plated on poly-lysine (Sigma, cat #P7886) coated plates in MN maturation medium containing DMEM/F12 (Gibco, cat #11330-032) and neurobasal medium (1:1 v/v), 2% 50× B27, 1% 100× N2, 0.25% 100× Glutamax, 10 ng/mL BDNF (Peprotech, cat #450-02), 10 ng/mL GDNF(Peprotech, cat #450-10), 1 ng/mL TGF-β1 (Peprotech, cat #100-21c), and 1× Brainfast supplement (BrainXell). The medium was changed with the same medium containing 15 μg/mL geltrex on day 1. An equal volume of maturation medium (excluding Geltrex) was added on day 4. Half of the medium (excluding the Brainfast supplement and Geltrex) was changed twice weekly from day 7. The MNs can be maintained for at least three weeks. […] NMS-873, cat #406458), or same volume of DMSO at D14, and then incubated for 6 days. The cells were harvested on D20. […] Cell viability was monitored every 3 or 4 days by staining with Calcein AM Viability Dye (Thermo, cat #65-0853-81), acquiring and analyzing images with ImageXpress Micro Confocal High-Content Imaging System (Molecular Devices). […] Cell viability was monitored at day 1 and day 14. […]

iso p97^R155H/+ MNs = experiment: MN cell survival assay (live cell staining), isogenic mutant line; details: 100 nM for 6 days, vs DMSO (FIG. 5B)
Method: To compare p97 WT and […]/+ cells, MNs were thawed and plated on poly-lysine coated 96-well plates (Greiner, cat #655090) at a density of 1000 cells per 100 μL per well in MN maturation medium as described in the “motor neuron differentiation and maturation” section. Medium was changed with 100 μL of the same medium containing 15 μg/mL geltrex on day 1. 100 μL additional medium (excluding Geltrex) was added on day 4. Half of the medium (excluding the Brainfast supplement and Geltrex) was changed on day 7 and 11. 200 nM Ara-C was added to inhibit non-MN cells from proliferating. On day 14, the medium was replaced with N2 medium (DMEM/F12 and neurobasal medium, 1:1 v/v, 1% 100× N2). N2 medium was changed every six days. Cell viability was monitored every 3 or 4 days by staining with Calcein AM Viability Dye (Thermo, cat #65-0853-81), acquiring and analyzing images with ImageXpress Micro Confocal High-Content Imaging System (Molecular Devices). For p97 inhibitor treatment, MNs were plated on poly-lysine coated 384-well plates (Greiner, cat #781946) at a density of 500 cells per 30 μL per well. The same medium was used for plating and maintaining cells. Cell viability was monitored at day 1 and day 14. […]

p97^R155H/+ MNs [2] = experiment: Western blot of dysregulated protein levels after p97 inhibitor treatment; details: 400 nM for 6 days, 20 dpm (FIG. 5C)
Method: The maturation of MNs was followed using a 14 day protocol from BrainXell. Briefly, the MNs were thawed and plated on poly-lysine (Sigma, cat #P7886) coated plates in MN maturation medium containing DMEM/F12 (Gibco, cat #11330-032) and neurobasal medium (1:1 v/v), 2% 50× B27, 1% 100× N2, 0.25% 100× Glutamax, 10 ng/mL BDNF (Peprotech, cat #450-02), 10 ng/mL GDNF(Peprotech, cat #450-10), 1 ng/mL TGF-β1 (Peprotech, cat #100-21c), and 1× Brainfast supplement (BrainXell). The medium was changed with the same medium containing 15 μg/mL geltrex on day 1. An equal volume of maturation medium (excluding Geltrex) was added on day 4. Half of the medium (excluding the Brainfast supplement and Geltrex) was changed twice weekly from day 7. The MNs can be maintained for at least three weeks. […] NMS-873, cat #406458), or same volume of DMSO at D14, and then incubated for 6 days. The cells were harvested on D20. MN cells were scraped off plates, washed with DPBS, and centrifuged at 300 g for 4 min to remove supernatant. Pellets were frozen at −80° C. Pellets were resuspended with 100 lysis buffer (50 mM Tris-HCl pH 8.0, 150 mM NaCl, 1% Triton X-100 with protease inhibitor tablet, 50 μM MG132, and 50 mM NEM), and incubated on ice for 10 min with occasional vortexing. After that, samples were centrifuged at 15000 rpm at 4° C. for 10 min and transferred 90 μL cell lysate into a 1.5 mL tube. Total soluble protein concentrations were measured using the Bradford test (Bio-Rad, cat #5000006). 30 μL 4×Laemmli sample buffer (Bio-Rad, cat #161-0774) was added and samples were boiled for 5 min. An equal amount of protein was loaded and separated using 4-20% Mini-PROTEAN TGX precast gels (Bio-Rad, cat #456-1096) and transferred to nitrocellulose membranes using Trans-Blot Turbo Transfer System (Bio-Rad, cat #170-4155). Membranes were blocked with 1×TBST with 5% w/v nonfat milk, incubated with primary antibodies for 2 h at room temperature or overnight at 4° C., and incubated with HRP-conjugated secondary antibodies (Bio-Rad, 1:3000 dilution) for 2 h at room temperature. […] The blot densities were analyzed using Image Lab 6.0.1 software (Bio-Rad).

p97^R155H/+ MNs [3] = experiment: Proteomic analysis (LC-MS/MS) of D20 MNs after p97 inhibitor treatment; details: for Tau and MCM6 (proteomics): 6 days of treatment, 400 nM; for number of the 440 downregulated proteins that were increased after treatment / number of the 920 upregulated proteins that were reduced after treatment: 6 days, count stated for treatment with CB-5083 or NMS-873 (FIG. 5E)
Method: The maturation of MNs was followed using a 14 day protocol from BrainXell. Briefly, the MNs were thawed and plated on poly-lysine (Sigma, cat #P7886) coated plates in MN maturation medium containing DMEM/F12 (Gibco, cat #11330-032) and neurobasal medium (1:1 v/v), 2% 50× B27, 1% 100× N2, 0.25% 100× Glutamax, 10 ng/mL BDNF (Peprotech, cat #450-02), 10 ng/mL GDNF(Peprotech, cat #450-10), 1 ng/mL TGF-β1 (Peprotech, cat #100-21c), and 1× Brainfast supplement (BrainXell). The medium was changed with the same medium containing 15 μg/mL geltrex on day 1. An equal volume of maturation medium (excluding Geltrex) was added on day 4. Half of the medium (excluding the Brainfast supplement and Geltrex) was changed twice weekly from day 7. The MNs can be maintained for at least three weeks. […] NMS-873, cat #406458), or same volume of DMSO at D14, and then incubated for 6 days. The cells were harvested on D20. After culture, MN cells were scraped off the plates, washed with DPBS, and centrifuged at 300 g for 4 min to remove supernatant. Pellets were frozen at -80° C. The mass spec samples were prepared by following instructions for the […] Sample Prep Kit (Thermo Scientific, cat #A4006). Samples were dried using a vacuum centrifuge and resuspended in 0.1% formic acid (Thermo, cat #85178) water solution. Peptide concentrations were measured using the Quantitative Fluorometric Peptide Assay kit (Thermo, cat #23290). LC-MS/MS experiments were performed by loading 0.5 μg sample onto an EASY-nLC 1000 (Thermo Scientific) connected to an Orbitrap Eclipse Tribrid mass spectrometer (Thermo Scientific). Peptides were separated on an Aurora UHPLC Column (25 cm×75 μm, 1.6 μm C18, AUR2-25075C18A, Ion Opticks) with a flow rate of 0.4 μL/min and a total duration time of 131 min following the gradient composed of 3% Solvent B for 1 min, 3-19% B for 72 min, 19-29% B for 28 min, 29-41% B for 20 min, 41-95% B for 3 min, and 95-98% B for 7 min. Solvent A consists of 97.8% H2O, 2% ACN, and 0.2% formic acid; solvent B consists of 19.8% H2O, 80% ACN, and 0.2% formic acid. MS1 scans were acquired with a range of 400-1600 m/z in the Orbitrap at 120 k resolution. The maximum injection time was 50 ms, and the AGC target was 2×105. The filter dynamic exclusion was set to exclude after 1 time, 30 s duration, and 10 ppm mass tolerance. MS2 scans were acquired with quadrupole isolation mode and higher-energy collisional dissociation (HCD) activation type in the Iontrap. The isolation window was 1.4 m/z, collision energy was 35%, maximum injection time was 35 ms, and the AGC target was 1×104. Other global settings were as below: ion source type, NSI; spray voltage, positive ion 2400 V, negative ion 600 V; ion transfer tube temperature, 300° C. Method modifications and data collection were performed using Xcalibur software (Thermo Scientific). Proteomic analysis was performed using Proteome Discoverer 2.4 (Thermo Scientific) software with the Uniprot human database and the SequestHT with Percolator validation. Protein abundance normalization was performed on total peptide. The data exported from PD2.4 were then used for further analysis. Limma analysis was performed using R studio following the user guide (Gordon, 2020). The volcano figures were plotted using Origin 2019b. PCA analyses were generated with PD2.4 and plotted using Prism 7. The Venn diagram was performed using FunRich 3.1. The heatmap figure was performed with prism 7. Functional enrichment analyses were performed with g:Profiler (Raudvere, 2019). The bubble plot was generated using Origin 2019b.

SMILES	loss of MNs (neuron loss, live cell staining) (p97^R155H/+ MNs [1])	loss of MNs (neuron loss, live cell staining) (iso p97^R155H/+ MNs)	LC3 level (western blot) (p97^R155H/+ MNs [2])	protein levels of ISL1, NES, Tau, pTau, MCM6, p53, y-H2Ax (western blot) (p97^R155H/+ MNs [2])	Tau and MCM6 (proteomics) (p97^R155H/+ MNs [3])	number of the 440 downregulated proteins that were increased after treatment (p97^R155H/+ MNs [3])	number of the 920 upregulated proteins that were reduced after treatment (p97^R155H/+ MNs [3])
Cc1cc2c(C(N)=O)cccc2n1-c1nc2c(c(NCc3ccccc3)n1)COCC2 [CB-5083]	significantly reduced the loss of MNs	significantly reduced the loss of MNs	slightly elevated	reversed increases	reduced	192	428
Cc1cc(OCc2nnc(SC3CCCC3)n2-c2cccnc2)ccc1-c1ccc(S(C)(=O)=O)cc1 [NMS-873, 3-[3-cyclopentylsulfanyl-5-[[3-methyl-4-(4-methylsulfonylphenyl)phenoxy]methyl]-1,2,4-triazol-4-yl]pyridine]	significantly reduced the loss of MNs	significantly reduced the loss of MNs	slightly elevated	reversed increases	reduced	192	428
